From patent US20190218479A1, “Stabilized Liquid Peroxide Compositions” (Novozymes A/S, priority 2016, published 2019)

B1: Subtilisin2: subtilisin with amino acid sequence SEQ ID NO: 1, reference subtilisin not covered by the invention (protein, listed as Bacillus lentus)
chain: AQSVPWGISRVQAPAAHNRGLTGSGVKVAVLDTGISTHPDLNIRGGASFVPGEPSTQDGNGHGTHVAGTIAALNNSIGVLGVAPSAELYAVKVLGASGSGSVSSIAQGLEWAGNNGMHVANLSLGSPSPSATLEQAVNSATSRGVLVVAASGNSGAGSISYPARYANAMAVGATDQNNNRASFSQYGAGLDIVAPGVNVQSTYPGSTYASLNGTSMATPHVAGAAALVKQKNPSWSNVQIRNHLKNTATSLGSTNLYGSGLVNAEAATR

What was measured:
Format in all cases: physicochemical
Subtilisin1 [1] = target: T1, Subtilisin1 (Lederbergia lenta, UniProt P29600, M216S); assay: Residual activity of Subtilisin1 after storage in peroxide model detergents with or without subtilisin stabilizers (N,N-dimethylcasein/TNBS)
Subtilisin1 [2] = target: T1, Subtilisin1; assay: as above; conditions: model detergents with hydrogen peroxide, pH 7 and 9; summary of Example 2
From the text: Chemicals used as buffers and substrates were commercial products of at least reagent grade. Subtilisin1 has the amino acid sequence as shown in SEQ ID NO: 2, which is a subtilisin having a M216 substitution according to the invention. Subtilisin2 has the amino acid sequence as shown in SEQ ID NO: 1, which is a reference subtilisin not covered by the invention. The stock solution of each subtilisin contains 4.4% w/w of active enzyme protein. Stabilizer1: Cbz-Gly-Ala-Tyr-H (C-terminal aldehyde), wherein Cbz is benzyloxycarbonyl; which is a subtilisin stabilizer according to the invention. When used in the examples below, Stabilizer1 was added to the subtilisin stock solution at a concentration of 0.28% w/w. Stabilizer2: Cbz-Gly-Ala-NHCH(CH2C6H4pOH)CH(OH)(OSO3)Na (hydrosulfite adduct of a C-terminal aldehyde) wherein Cbz is benzyloxycarbonyl; which is a subtilisin stabilizer according to the invention. When used in the examples below, Stabilizer2 was added to the subtilisin stock solution at a concentration of 0.35% w/w. Stabilizer3: MeOCO-Val-Ala-Leu-H (C-terminal aldehyde). When used in the examples below, Stabilizer3 was added to the subtilisin stock solution at a concentration of 0.28% w/w. Stabilizer4: 4-formyl-phenyl-boronic acid (4-FPBA); which is a reference protease stabilizer not covered by the invention. When used in the examples below, Stabilizer4 was added to the subtilisin stock solution at a concentration of 3.4% w/w.
(§1) The compositions were prepared as shown in the examples and samples stored in closed vials for storage. Residual activity was measured by comparing activity in a stored sample at the time of taken out of incubation without freezing and comparing activity to a freshly prepared sample without peroxide and dividing activity in the stored sample with activity in the fresh sample.
(§2) Activity analysis is performed by analysing protease activity by hydrolysis of N,N-dimethylcasein to produce a carboxylic acid and a primary amine compounds. The primary amines that are formed react, under alkaline conditions, with tri-nitrobenzenesulfonic acid (TNBS) to form a colored complex. The amount of colored complex that forms over the fixed reaction period at a constant temperature (530 seconds at 40° C.; complex absorbance is measured at 405 nm) is related to the amount of active protease present in the sample. The amount of colored product complex produced is compared to a standard curve based on known protease concentrations to calculate the amount of active protease in the detergent sample. The amount of protease activity at a specific time point is compared to the t=0 activity level to calculate the % active protease remaining.
This study examined Subtilisin1 stability in the presence of hydrogen peroxide, with and without subtilisin stabilizers (Stabilizer4 and Stabilizer2) in two different model detergents at pH 7 and 9.

[3] = Stability of Subtilisin1 and Subtilisin2 in the liquid peroxide composition of Table 1 (residual protease activity, N,N-dimethylcasein/TNBS); conditions: liquid peroxide composition in Table 1 (0.8% H2O2, pH 7.0), 4 weeks
Procedure: as §1, §2

[4] = Residual hydrogen peroxide after storage, permanganate titration; conditions: liquid peroxide composition in Table 1, 37° C., 4 weeks
Procedure: Residual hydrogen peroxide (H2O2) was measured by permanganate titration (reduction of potassium permanganate by hydrogen peroxide in sulfuric acid).

[5] = Subtilisin1 in “Mix Laundry” (Table 19, pH 7.5) no H2O2, no sodium salicylate, no polyDADMAC
[6] = Subtilisin1 in “Mix Laundry” (Table 19, pH 7.5) with 1% H2O2, with sodium salicylate, with polyDADMAC
[7] = Subtilisin1 in “NI pretreat” (Table 19, pH 7.0) with 1% H2O2, with sodium salicylate, with polyDADMAC
[8] = Subtilisin1 in “NI pretreat” (Table 19, pH 7.0) without H2O2, no sodium salicylate, no polyDADMAC

T1 sequence (P29600 whole entry M216S): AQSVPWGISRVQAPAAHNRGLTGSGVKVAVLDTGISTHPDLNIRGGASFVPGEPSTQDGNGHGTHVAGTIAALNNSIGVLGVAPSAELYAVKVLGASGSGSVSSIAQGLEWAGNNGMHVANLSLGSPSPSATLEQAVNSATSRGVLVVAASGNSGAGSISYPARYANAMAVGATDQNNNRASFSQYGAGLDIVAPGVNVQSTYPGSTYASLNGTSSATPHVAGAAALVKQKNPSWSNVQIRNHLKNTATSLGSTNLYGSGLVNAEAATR

Row | Molecule | Residual activity after storage for 2 weeks at 30° C. (Subtilisin1 [1]; [5]) | Residual activity after storage for 2 weeks at 30° C. (Subtilisin1 [1]; [6]) | Residual activity after storage for 2 weeks at 37° C. (Subtilisin1 [1]; [7]) | Residual activity after storage for 2 weeks at 37° C. (Subtilisin1 [1]; [8]) | stabilization of Subtilisin1, compared to Stabilizer4 (Subtilisin1 [2]) | % Subtilisin residual activity after 4 weeks ([3]; 22° C.) | % Subtilisin residual activity after 4 weeks ([3]; 30° C.) | % Subtilisin residual activity after 4 weeks ([3]; 37° C.) | Residual H2O2 after 4 weeks [4]
1 | O=BOB(O)OB(O)OB=O [borax, reference compound] | 81% | 43% | 22% | 117% | – | – | – | – | –
2 | O=Cc1ccc(B(O)O)cc1 [Stabilizer4, 4-formyl-phenyl-boronic acid, reference compound] | 86% | 20% | 11% | 129% | – | – | – | – | –
3 | MeOCO-Val-Ala-Leu-H [Stabilizer3] | 83% | 60% | 64% | 95% | – | – | – | – | –
4 | Cbz-Gly-Ala-NHCH(CH2C6H4pOH)CH(OH)(OSO3)Na [Stabilizer2] | 83% | 52% | 61% | 98% | much more effective stabilization | – | – | – | –
5 | B1 | – | – | – | – | – | 35% | 33% | 15% | 95.8%
